In brackets after ≈: the same amount, converted by molar mass. Read-outs that look alike come from different tables or passages of the source.
Assays:
[1] = tested on: Staphylococcus aureus (ATCC #29213); test: microbe, parasite or virus in culture; format: cell-based
[2] = tested on: Escherichia coli (ATCC#25922); test: microbe, parasite or virus in culture; format: cell-based
E. coli MG1655 = format: cell-based
S. typhimurium hisF645 = format: cell-based, Salmonella typhimurium
[3] = tested on: E. coli 287 (ATCC #11775); format: cell-based
E. coli = format: cell-based
[4] = tested on: E. coli strain 14444 (MG1655 xylA); format: cell-based
[5] = tested on: E. coli strain 14445 (MG1655 himA); format: cell-based
T. harzianum DAOM 190830 = format: cell-based, Trichoderma harzianum
[6] = Staphylococcus aureus, ATCC29213, 18 h
[7] = Escherichia coli, ATCC25922, 18 h

Structure (SMILES)	MIC [1, 6] [µg/mL]	MIC [2] [µg/mL]	MIC [2, 7] [µg/mL]	MIC [1] [µg/mL]	suitability as nitrogen source (growth, purple color) (E. coli MG1655)	use as carbon source (E. coli)	carbon source utilization, in words [4]	also measured
NC[C@H]1O[C@H](O[C@H]2[C@H](O)[C@@H](O[C@H]3O[C@H](CO)[C@@H](O)[C@H](N)[C@H]3O)[C@H](N)C[C@@H]2N)[C@H](O)[C@@H](O)[C@@H]1O [Kanamycin, kanamycin]	16 to 32 (≈ 33 to 66 µM)	8 to 16	16 to 32 (≈ 33 to 66 µM)					
CC1(C)S[C@@H]2[C@H](NC(=O)[C@H](N)c3ccccc3)C(=O)N2[C@H]1C(=O)O [Ampicillin, ampicillin]	1 to 4 (≈ 2.86 to 11.4 µM)	2 to 4	1 to 2 (≈ 2.86 to 5.72 µM)	1 to 2				
N[C@@H](Cc1c[nH]cn1)C(=O)O [L-histidine]					not suitable			growth stimulation by supplement (well color) (S. typhimurium hisF645): turned purple; carbon source utilization result [3]: negative
C[C@@H](O)[C@H](N)C(=O)O [L-threonine]					not suitable	can use	negative	carbon source utilization, in words [5]: negative
CN(C)[C@@H]1C(O)=C(C(N)=O)C(=O)[C@@]2(O)C(O)=C3C(=O)c4c(O)cccc4[C@@](C)(O)[C@H]3C[C@@H]12 [Tetracycline, tetracycline]	0.25 to 2 (≈ 0.563 to 4.5 µM)		0.5 to 1 (≈ 1.13 to 2.25 µM)	0.25 to 1				
O=C(O)[C@@H]1CCCN1 [L-proline]					positive	can use	negative	carbon source utilization result (T. harzianum DAOM 190830): positive

— patent US6727076B2 (priority 1995, dated 2004)
